How the values were obtained:
α-galactosidase [1] = tested on: T1, α-galactosidase; test: initial rate of hydrolysis, Lineweaver-Burk; assay type: biochemical, Fusarium verticillioides; conditions: citrate phosphate buffer pH 5.0, 50 °C (standard assay); read-out: apparent Km
T1 construct: gene EC 3.2.1.22; single band 57 kDa on SDS-PAGE; optimum pH 4.0

α-galactosidase [2] = tested on: T1, α-galactosidase; test: initial rate of hydrolysis, p-nitrophenol release at […] nm, Lineweaver-Burk; assay type: biochemical, Fusarium verticillioides; conditions: citrate phosphate buffer pH 5.0, 50 °C (standard assay); read-out: apparent Km

| SMILES | Km (α-galactosidase [1]) [µM] | Km (α-galactosidase [2]) [µM] |
| --- | --- | --- |
| OC[C@H]1O[C@H](OC[C@H]2OC(O)[C@H](O)[C@@H](O)[C@@H]2O)[C@H](O)[C@@H](O)[C@H]1O (stereo partly drawn) [melibiose] | 1360 | – |
| O=[N+]([O-])c1ccc(O[C@H]2O[C@H](CO)[C@H](O)[C@H](O)[C@H]2O)cc1 [p-nitrophenyl-α-D-galactopyranoside] | – | 200 |
| OC[C@H]1O[C@H](OC[C@H]2O[C@H](O[C@]3(CO)O[C@H](CO)[C@@H](O)[C@@H]3O)[C@H](O)[C@@H](O)[C@@H]2O)[C@H](O)[C@@H](O)[C@H]1O [raffinose] | 3660 | – |

From paper PMC5148754, “Response surface methodology-based optimization of production media and purification of α-galactosidase in solid-state fermentation by Fusarium moniliforme NCIM 1099” (3 Biotech, 2016)
